Laboratory results taken from patent publication US20240116845A1, “INDENE COMPOUNDS, PHARMACEUTICAL COMPOSITIONS THEREOF, AND THEIR THERAPEUTIC APPLICATIONS” (NucMito Pharmaceuticals Co., Ltd., priority 2021, published 2024).

What was measured:
Assay type in all cases: cell-based
[1] = test system: alpha-smooth muscle actin (α-SMA); test: Inhibition of TGF-β induced expression of alpha-smooth muscle actin in CFSC cells (western blot); settings: compound at 10 μM, TGF-β (10 ng/mL), 24 hours
Method in brief: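 Read-out is percent decrease in α-SMA western-blot band intensity, β-actin also probed, relative to TGF-β-only cells. CFSC cells were co-treated for 24 h at 37 °C with 10 ng/mL TGF-β and 10 μM compound in serum-free DMEM.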

[2] = test system: A431 (epidermoid carcinoma); test: Antiproliferative activity, CCK-8 cell viability; settings: Homo sapiens, A-431, 72 h, read-out: Inhibition of Cancerous Cells, A431; for inhibition at 3.3 µM: compound concentration of 3.3 μM; for inhibition at 10 µM: compound concentration of 10 μM; for inhibition at 30 µM: compound concentration of 30 μM
Method in brief: (§1)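 Viability relative to DMSO controls came from CCK-8 absorbance at 450 nm after 72 h exposure at 37°C. Compound concentrations were 3.3, 10 or 30 μM, in DMEM plus 10% FBS. Results are categorised by inhibition level: at least 50%, 30 to under 50%, or under 30%.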

[3] = test system: A549 (lung adenocarcinoma); test: Antiproliferative activity, CCK-8 cell viability; settings: Homo sapiens, 72 h, read-out: Inhibition of Cancerous Cells, A549; for inhibition at 3.3 µM: compound concentration of 3.3 μM; for inhibition at 10 µM: compound concentration of 10 μM; for inhibition at 30 µM: compound concentration of 30 μM
[4] = test system: B16F10 (malignant melanoma); test: Antiproliferative activity, CCK-8 cell viability; settings: Mus musculus, B16-F10, 72 h, read-out: Inhibition of Cancerous Cells, B16F10; for inhibition at 3.3 µM: compound concentration of 3.3 μM; for inhibition at 10 µM: compound concentration of 10 μM; for inhibition at 30 µM: compound concentration of 30 μM
Method in brief: as §1

HeLa (cervical cancer) = test: Antiproliferative activity, CCK-8 cell viability; settings: Homo sapiens, 72 h, read-out: Inhibition of Cancerous Cells, HELA; for inhibition at 3.3 µM: compound concentration of 3.3 μM; for inhibition at 10 µM: compound concentration of 10 μM; for inhibition at 30 µM: compound concentration of 30 μM
HepG2 (liver cancer) = test: Antiproliferative activity, CCK-8 cell viability; settings: Homo sapiens, 72 h, read-out: Inhibition of Cancerous Cells, HepG2; for inhibition at 3.3 µM: compound concentration of 3.3 μM; for inhibition at 10 µM: compound concentration of 10 μM; for inhibition at 30 µM: compound concentration of 30 μM
Method in brief: as §1

[5] = test system: MDA-MB-231 (breast cancer); test: Antiproliferative activity, CCK-8 cell viability; settings: Homo sapiens, 72 h, read-out: Inhibition of Cancerous Cells, MDA-MB-231; for inhibition at 3.3 µM: compound concentration of 3.3 μM; for inhibition at 10 µM: compound concentration of 10 μM; for inhibition at 30 µM: compound concentration of 30 μM
Method in brief: as §1

SW480 (colon cancer) = test: Antiproliferative activity, CCK-8 cell viability; settings: Homo sapiens, 72 h, read-out: Inhibition of Cancerous Cells, SW480; for inhibition at 3.3 µM: compound concentration of 3.3 μM; for inhibition at 10 µM: compound concentration of 10 μM; for inhibition at 30 µM: compound concentration of 30 μM
Method in brief: as §1

SMILES | inhibition at 10 µM [1] [%] | inhibition at 3.3 µM [2] [%] | inhibition at 10 µM [2] [%] | inhibition at 30 µM [2] [%] | inhibition at 3.3 µM [3] [%] | inhibition at 10 µM [3] [%] | inhibition at 30 µM [3] [%] | inhibition at 3.3 µM [4] [%] | inhibition at 10 µM [4] [%] | inhibition at 30 µM [4] [%] | inhibition at 3.3 µM (HeLa (cervical cancer)) [%] | inhibition at 10 µM (HeLa (cervical cancer)) [%] | inhibition at 30 µM (HeLa (cervical cancer)) [%] | inhibition at 3.3 µM (HepG2 (liver cancer)) [%] | inhibition at 10 µM (HepG2 (liver cancer)) [%] | inhibition at 30 µM (HepG2 (liver cancer)) [%] | inhibition at 3.3 µM [5] [%] | inhibition at 10 µM [5] [%] | inhibition at 30 µM [5] [%] | inhibition at 3.3 µM (SW480 (colon cancer)) [%] | also measured
CC1=C(CC(=O)O)c2cc(F)cc(F)c2/C1=C\c1cccc(Oc2ccccc2)c1 [Compound D20, 2-[(1Z)-5,7-Difluoro-1-(3-(phenoxy)benzylidene)-2-methyl-1H-inden-3-yl]-acetic acid] | ≥ 80 | < 30 | < 30 | ≥ 50 | 30 to 50 | ≥ 50 | ≥ 50 | 30 to 50 | ≥ 50 | ≥ 50 | < 30 | < 30 | ≥ 50 | ≥ 50 | ≥ 50 | ≥ 50 | 30 to 50 | ≥ 50 | ≥ 50 | ≥ 50 | inhibition at 10 µM (SW480 (colon cancer)): ≥ 50%; inhibition at 30 µM (SW480 (colon cancer)): ≥ 50%
CC1=C(CC(=O)O)c2c(F)cc(F)cc2/C1=C\c1cccc(Oc2ccccc2)c1 [Compound D21, 2-[(1Z)-4,6-Difluoro-1-(3-(phenoxy)benzylidene)-2-methyl-1H-inden-3-yl]-acetic acid] | ≥ 80 | < 30 | 30 to 50 | ≥ 50 | 30 to 50 | ≥ 50 | ≥ 50 | ≥ 50 | ≥ 50 | ≥ 50 | < 30 | ≥ 50 | ≥ 50 | 30 to 50 | 30 to 50 | ≥ 50 | ≥ 50 | ≥ 50 | ≥ 50 | 30 to 50 | inhibition at 10 µM (SW480 (colon cancer)): ≥ 50%; inhibition at 30 µM (SW480 (colon cancer)): ≥ 50%
COc1ccc(Oc2cccc(/C=C3/C(C)=C(CC(=O)O)c4cc(F)ccc43)c2)cc1 [Compound D22, 2-[(1Z)-5-Fluoro-2-methyl-1-({3-[4-methoxyphenoxy]phenyl}methylidene)-1H-inden-3-yl]acetic acid] | ≥ 80 | < 30 | < 30 | ≥ 50 | 30 to 50 | 30 to 50 | ≥ 50 | < 30 | ≥ 50 | ≥ 50 | 30 to 50 | ≥ 50 | ≥ 50 | < 30 | 30 to 50 | ≥ 50 | ≥ 50 | ≥ 50 | ≥ 50 | < 30 | inhibition at 10 µM (SW480 (colon cancer)): 30 to 50%; inhibition at 30 µM (SW480 (colon cancer)): ≥ 50%
CC1=C(CC(=O)O)c2cc(F)ccc2/C1=C\c1ccc(F)c(Oc2ccccc2)c1 [Compound D23, 2-[(1Z)-5-Fluoro-1-(4-fluoro-3-(phenoxy)benzylidene)-2-methyl-1H-inden-3-yl]-acetic acid] | ≥ 80 | < 30 | 30 to 50 | ≥ 50 | < 30 | ≥ 50 | ≥ 50 | < 30 | ≥ 50 | ≥ 50 | < 30 | ≥ 50 | ≥ 50 | 30 to 50 | ≥ 50 | ≥ 50 | ≥ 50 | ≥ 50 | ≥ 50 | < 30 | inhibition at 10 µM (SW480 (colon cancer)): 30 to 50%; inhibition at 30 µM (SW480 (colon cancer)): ≥ 50%
CC1=C(CC(=O)O)c2cc(F)ccc2/C1=C\c1cccc(Oc2ccc(Cl)cc2)c1 [Compound D25, 2-[(1Z)-5-Fluoro-2-methyl-1-({3-[4-chlorophenoxy]phenyl}methylidene)-1H-inden-3-yl]acetic acid] | ≥ 80 | < 30 | < 30 | ≥ 50 | < 30 | 30 to 50 | ≥ 50 | 30 to 50 | ≥ 50 | ≥ 50 | 30 to 50 | ≥ 50 | ≥ 50 | 30 to 50 | ≥ 50 | ≥ 50 | ≥ 50 | ≥ 50 | ≥ 50 | ≥ 50 | inhibition at 10 µM (SW480 (colon cancer)): ≥ 50%; inhibition at 30 µM (SW480 (colon cancer)): ≥ 50%
CC1=C(CC(=O)O)c2cc(F)ccc2/C1=C\c1cccc(Oc2cccc(C(F)(F)F)c2)c1 [Compound D27, 2-[(1Z)-5-Fluoro-2-methyl-1-({3-[3-trifluoromethylphenoxy]phenyl}-methylidene)-1H-inden-3-yl]acetic acid] | ≥ 80 | < 30 | ≥ 50 | ≥ 50 | 30 to 50 | 30 to 50 | ≥ 50 | < 30 | 30 to 50 | ≥ 50 | < 30 | 30 to 50 | ≥ 50 | ≥ 50 | ≥ 50 | ≥ 50 | ≥ 50 | ≥ 50 | ≥ 50 | 30 to 50 | inhibition at 10 µM (SW480 (colon cancer)): ≥ 50%; inhibition at 30 µM (SW480 (colon cancer)): ≥ 50%
COc1cccc2c1C(CC(=O)O)=C(C)/C2=C/c1ccc(Oc2ccccc2)cc1 [Compound D28, 2-[(1Z)-4-Methoxy-1-(4-(phenoxy)benzylidene)-2-methyl-1H-inden-3-yl]-acetic acid] | 50 to 80 | ≥ 50 | ≥ 50 | ≥ 50 | 30 to 50 | 30 to 50 | ≥ 50 | 30 to 50 | ≥ 50 | ≥ 50 | < 30 | < 30 | < 30 | ≥ 50 | ≥ 50 | ≥ 50 | 30 to 50 | 30 to 50 | ≥ 50 | ≥ 50 | inhibition at 10 µM (SW480 (colon cancer)): ≥ 50%; inhibition at 30 µM (SW480 (colon cancer)): ≥ 50%
O=C(O)CC1=C/C(=C/c2ccc(Oc3ccc(F)cc3)cc2)c2ccc(F)cc21 [Compound D33, 2-[(1Z)-5-Fluoro-1-{[4-(4-fluorophenoxy)phenyl]methylidene}-1H-inden-3-yl]acetic acid] | < 30 | < 30 | 30 to 50 | ≥ 50 | 30 to 50 | 30 to 50 | ≥ 50 | 30 to 50 | ≥ 50 | ≥ 50 | 30 to 50 | < 30 | ≥ 50 | ≥ 50 | ≥ 50 | ≥ 50 | ≥ 50 | ≥ 50 | ≥ 50 | 30 to 50 | inhibition at 10 µM (SW480 (colon cancer)): ≥ 50%; inhibition at 30 µM (SW480 (colon cancer)): ≥ 50%
